According to paper PMC8294803, “A Roadmap to the Structure-Related Metabolism Pathways of Per- and Polyfluoroalkyl Substances in the Early Life Stages of Zebrafish (Danio rerio)” (Environmental Health Perspectives, 2021):
Where “and” joins values, the source holds several entries; their conditions need not be identical. Identical values can stand only once. Entries after “also recorded” stand apart in the source; their conditions may differ. Like-named read-outs stand apart in the source and are kept apart here.

What was measured:
zebrafish embryos = conditions: for Lethal effects on zebrafish larvae: 5μM, 5 d
zebrafish larvae [1] = test: Nontargeted analysis of PFAS metabolites in zebrafish larvae (high-resolution MS); conditions: for Profile of metabolites (%): Alcohol / Peak intensity: Alcohol (parent FTOH): zebrafish larvae; for Profile of metabolites (%): Alcohol: Figure 5B; for Peak intensity: Alcohol (parent FTOH): single replicates, Figure 5A
Experimental: (§1) Zebrafish embryos were collected immediately after spawning, within 1 h, and subsequently transferred to 24-well plates with 1mL of facility water ( 0.036g sea salt, 0.15g sodium bicarbonate in 2L of reverse osmosis water). […] Three well replicates on the same plate were conducted for each concentration of individual chemical. […] Seven batches of experiments were performed to test all 74 PFAS. DMSO controls were incorporated in each batch of exposure experiments. Three replicates were performed for each treatment group, and 20 embryos were used for each replicate. […] For daily replenishment, 2.5mL of old exposure medium were replaced with freshly prepared medium every 24 h from 24 to 96 h post fertilization (hpf). Hatched or dead embryo numbers were recorded every 24 hpf, after which dead embryos were discarded from the growth media. Dead embryos or unhatched embryos were not used for PFAS measurement because the metabolism of PFAS might have been impacted. Zebrafish larvae collection occurred at 120 hpf. First, the larvae were anesthetized by cooling the plate in ice water (0–4°C) for ∼20 min . Then 8–15 larvae in each well were transferred into 1.5-mL tubes. Exposure media was carefully removed, and then the larvae were weighed (wet weight) after blotting excess water with a paper towel. […] Samples were stored at −80 °C until further chemical analysis was performed. Survival rate and hatching rate were calculated by summarizing all the documented data from the whole treatment duration. […] The exposure experiment of PFOSA was repeated using the same procedure as described above.
(§2) Each sample was spiked with 2μL of 0.2μg/mL mass-labeled PFAS mixture. Following this, 500μL of dichloromethane/methanol (2:1, vol/vol) was added to each sample for PFAS extraction. Larvae were then homogenized via ultrasonic probe, followed by 30 min of shaking and 30 min of sonication. Each sample was centrifuged at 14,000×g for 5 min, after which the supernatant was transferred to new tubes. Extraction was repeated once and the two supernatants were combined, evaporated under nitrogen flow, and reconstituted in 200μL of methanol for MS analysis.
(§3) Three microliters of each zebrafish extract was applied to a C18 column ( 1.5μm; 2.1mm×50mm; Thermo Scientific) and analyzed using a Vanquish ultra-HPLC system (Thermo Fisher Scientific) coupled to a Q Exactive high-resolution mass spectrometer (Thermo Fisher Scientific). The sampler and column compartments were maintained at 4°C and 40°C, respectively. The aqueous mobile phase solution (A) consisted of water, whereas the organic mobile phase solution (B) consisted of acetonitrile. […] MS data was acquired in full scan mode (100–1000 m/z, 70,000 mass resolution, 3×10^6 maximum ions collected per 100 ms), and tandem MS (MS/MS) data was recorded by all-ion fragmentation (AIF) mode. Negative and positive ion modes were carried out simultaneously at a 10-min method duration. […] An overview of the analyses conducted on the various PFAS is available in Table S2.
Nontargeted data analysis was accomplished with R scripts that are available on Github (https://github.com/huiUofT/PFASmetabolite). […] The peak features were matched across samples with a mass tolerance of 2.5 ppm and a RT window of 20 s, after RT adjustment. The ratio of abundances of each feature in treatment groups relative to the control group (DMSO) was calculated. The p -values of the difference between two groups were determined by student’s t -tests.

zebrafish larvae [2] = test: Bioconcentration factors (BCF) of PFAS in zebrafish larvae; conditions: zebrafish larvae, 120 hpf, three replicates; for BCF 0.5µM: 0.5 µM exposure; for BCF 5µM: 5 µM exposure
Experimental: as §1, §2, §3
GraphPad Prism (version 7.0.4; GraphPad Software) and R studio (version 1.1.456; R Studio Inc.) software was used, and an ANOVA with Dunnett tests was employed to evaluate the statistical significance of the percentage hatched and mortality rate. Exponential regressions were used to determine the relationships between bioconcentration factor (BCF) and binding affinities ( Kd ) to L-FABP.

[3] = test system: liver fatty acid binding protein (L-FABP); set-up: method as in Yang et al. 2020; conditions: ref Yang et al. 2020, cited from earlier work; for Kd: read-out: Kd (μM), L-FABP binding affinity
[4] = biological target: T1, recombinant human liver carboxylesterase 1 (hCES1) (Homo sapiens, UniProt P23141); test: Hydrolysis of PFAS by recombinant hCES1; assay type: in vitro ADME; conditions: 10 μM PFAS, single replicates; for Parent PFAS, hCES1 (%): 100 μg/L hCES1, phosphate buffer 37 °C 1 hour, axis %Control; for Parent PFAS, Control (%): without hCES1, phosphate buffer 37 °C 1 hour
T1 construct: purchased Sigma Aldrich
T1 sequence (P23141 18-567): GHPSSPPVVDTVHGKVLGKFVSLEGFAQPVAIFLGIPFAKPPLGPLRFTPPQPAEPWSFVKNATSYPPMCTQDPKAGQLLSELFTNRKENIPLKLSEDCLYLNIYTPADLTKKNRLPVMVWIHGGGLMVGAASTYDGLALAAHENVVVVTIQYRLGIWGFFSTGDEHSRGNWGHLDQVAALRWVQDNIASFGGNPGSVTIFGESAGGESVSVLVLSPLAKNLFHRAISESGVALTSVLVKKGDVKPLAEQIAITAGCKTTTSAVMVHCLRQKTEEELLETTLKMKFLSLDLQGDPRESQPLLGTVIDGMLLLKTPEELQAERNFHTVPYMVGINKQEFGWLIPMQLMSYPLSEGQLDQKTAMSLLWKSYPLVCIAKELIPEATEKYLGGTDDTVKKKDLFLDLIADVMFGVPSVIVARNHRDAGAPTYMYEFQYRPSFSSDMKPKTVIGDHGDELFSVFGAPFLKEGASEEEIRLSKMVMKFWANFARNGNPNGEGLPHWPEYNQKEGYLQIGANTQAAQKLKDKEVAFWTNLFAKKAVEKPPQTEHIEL
Experimental: Because recombinant zebrafish CES is not available, we decided to use hCES1 to evaluate the structure-related hydrolysis of PFAS. […] In vitro enzymatic activity experiments were carried out for 1 h in 1.5-mL tubes with 100μL phosphate buffer ( 137 mM sodium chloride, 10 mM phosphate buffer, 2.7 mM potassium chloride; pH 7.4) at 37°C with shaking. Reaction mixtures contained different concentrations of PFAS (1, 10, and 50μM ) and 100μg/L hCES1. […] To stop the hydrolysis reaction, four times the volume of ice-cold methanol was added. The hCES1 protein was precipitated out by centrifugation ( 14,000×g , 10 min). The supernatant was transferred to a new tube and analyzed via MS for the analysis of parent compounds and suspected metabolites (i.e., carboxylates).

[5] = 5μM through 120 hpf, malformation rate
[6] = zebrafish (Danio rerio), in vivo

Row | Structure (SMILES) | pericardial oedemata, Mean (zebrafish embryos; [5]) [%] | spinal curvature, Mean (zebrafish embryos; [5]) [%] | tail dysplasia, Mean (zebrafish embryos; [5]) [%] | Mortality (%) (zebrafish embryos; 5 µM, exposure through 120 hpf) | Metabolites / hydrolysis products in zebrafish larvae (zebrafish larvae [1]; in vivo, nontargeted analysis) | BCF 0.5µM (zebrafish larvae [2]) | BCF 5µM (zebrafish larvae [2]) [L/kg] | L-FABP ligand [3] | Parent PFAS, hCES1 (%) [4] | Parent PFAS, Control (%) [4] | Lethal effects on zebrafish larvae (zebrafish embryos) | Kd [3] [µM] | Lethal effects on zebrafish larvae (zebrafish embryos; listed as PFOSA) | Mortality (%) (zebrafish embryos; [6]) | pericardial oedemata, Mean (zebrafish embryos; [6]) [%] | spinal curvature, Mean (zebrafish embryos; [6]) [%] | tail dysplasia, Mean (zebrafish embryos; [6]) [%] | Profile of metabolites (%): Alcohol (zebrafish larvae [1]) [%] | Peak intensity: Alcohol (parent FTOH) (zebrafish larvae [1])
1 | C=C(C)C(=O)OCCC(F)(F)C(F)(F)C(F)(F)C(F)(F)C(F)(F)C(F)(F)F [compound 2, 6:2 Fluorotelomer methacrylate] | 3.33 | 1.11 | 4.44 | 0 | hydrolysis products (i.e., sulfated 6:2 FTOH) were also detected | – | – | – | – | – | – | – | – | – | – | – | – | – | –
2 | CNS(=O)(=O)C(F)(F)C(F)(F)C(F)(F)C(F)(F)C(F)(F)C(F)(F)C(F)(F)C(F)(F)F [compound 16, N-Methylperfluorooctanesulfonamide] | 0.00 | 0.00 | 0.00 | – | – | 292.232 L/kg | 89 ± 9.4 | not identified as L-FABP ligands | 89.36% and 92.00% and 92.59% | 93.34% and 78.46% and 128.20% | strongest lethal effects | – | – | – | – | – | – | – | –
3 | N.O=C(O)C(F)(F)C(F)(F)C(F)(F)C(F)(F)C(F)(F)C(F)(F)C(F)(F)F [compound 21, Ammonium perfluorooctanoate] | 2.22 | 1.11 | 2.22 | 0 | – | 42.5265 L/kg | 21 ± 0.42 | – | – | – | – | 18.7 | – | – | – | – | – | – | –
4 | O=S(=O)([O-])C(F)(F)C(F)(F)C(F)(F)C(F)(F)C(F)(F)C(F)(F)F.[K+] [compound 26, Potassium perfluorohexanesulfonate] | 0.00 | 0.00 | 0.00 | 3.3 | – | 55.2382 L/kg | 30 ± 0.71 | – | – | – | – | 11.2 | – | – | – | – | – | – | –
5 | O=C(O)C(F)(F)C(F)(F)C(F)(F)OC(F)(F)F [compound 28, Perfluoro(4-methoxybutanoic) acid] | 0.00 | 2.22 | 0.00 | 1.1 | – | 5.238 L/kg | 1.4 ± 0.17 | – | – | – | – | 815 | – | – | – | – | – | – | –
6 | O=C(O)C(F)(F)OC(F)(F)C(F)(F)OC(F)(F)C(F)(F)OC(F)(F)C(F)(F)C(F)(F)C(F)(F)F [compound 34, Perfluoro-3,6,9-trioxatridecanoic acid] | 0.00 | 0.00 | 0.00 | 10 | – | 585 ± 174 L/kg and 584.908 L/kg | 93 ± 19 | – | – | – | – | 8.22 | – | – | – | – | – | – | –
7 | O=S(=O)(O)C(F)(F)C(F)(F)C(F)(F)C(F)(F)C(F)(F)C(F)(F)C(F)(F)C(F)(F)F [compound 46, Perfluorooctanesulfonic acid] | 0.00 | 0.00 | 0.00 | 2.2 | – | 270.546 L/kg | 91 ± 10 | – | – | – | – | 8.1 | – | – | – | – | – | – | –
8 | O=C(O)C(F)(F)OC(F)(F)C(F)(F)OC(F)(F)F [compound 54, Perfluoro-3,6-dioxaheptanoic acid] | 1.11 | 0.00 | 1.11 | 2.2 | – | 2.103 L/kg | 2.0 ± 0.40 | – | – | – | – | 252 | – | – | – | – | – | – | –
9 | O=S(=O)([O-])C(F)(F)C(F)(F)C(F)(F)C(F)(F)F.[K+] [compound 57, Potassium perfluorobutanesulfonate] | 1.11 | 0.00 | 0.00 | 2.2 | – | 4.038 L/kg | 3.0 ± 0.54 | – | – | – | – | 125 | – | – | – | – | – | – | –
10 | NS(=O)(=O)C(F)(F)C(F)(F)C(F)(F)C(F)(F)C(F)(F)C(F)(F)C(F)(F)C(F)(F)F [compound 60, Perfluorooctanesulfonamide] | 0.00 | 0.00 | 0.00 | 100 | – | 501 ± 19 L/kg and 501.032 L/kg | – | – | 83.48% and 89.94% and 97.43% | 81.21% and 101.71% and 117.08% | strongest lethal effects | 5.87 | no zebrafish larvae from the 5-μM group survived; also recorded: All zebrafish larvae were dead | – | – | – | – | – | –
11 | O=C(/C=C(\O)C(F)(F)F)C(F)(F)F [compound 61, 3H-Perfluoro-4-hydroxy-3-penten-2-one] | – | – | – | – | – | – | 7.7 ± 2.3 | – | – | – | – | 135 | – | 4.4 | 0.00 | 0.00 | 0.00 | – | –
12 | OCC(F)(F)C(F)(F)C(F)(F)C(F)(F)C(F)(F)C(F)F [compound 67, Dodecafluoroheptanol] | 1.11 | 0.00 | 0.00 | 0 | – | – | – | – | – | – | – | – | – | – | – | – | – | 0.00 | 0
13 | OCCC(F)(F)C(F)(F)C(F)(F)C(F)(F)C(F)(F)C(F)(F)F [compound 70, 6:2 Fluorotelomer alcohol] | 0.00 | 0.00 | 0.00 | 0 | – | – | – | – | – | – | – | – | – | – | – | – | – | 0.00 | 0
14 | O=S(=O)(O)C(F)(F)C(F)(F)C(F)(F)C(F)(F)F [compound 73, Perfluorobutanesulfonic acid] | 0.00 | 1.11 | 0.00 | 5.6 | – | 2.903 L/kg | 2.8 ± 0.47 | – | – | – | – | 116 | – | – | – | – | – | – | –
